{
  "source": "ChEMBL document CHEMBL1147379",
  "about": "“Antineoplastic agents, 256. Cell growth inhibitory isocarbostyrils from Hymenocallis” (1993)",
  "tested_on": "P388",
  "assay": "Growth inhibition of mouse P388 cells",
  "format": "functional",
  "conditions": "read-out: ED50 (the source's name)",
  "data": [
    {"compound": "O=C1N[C@H]2[C@H](O)[C@H](O)[C@@H](O)C[C@@H]2c2cc3c(c(O)c21)OCO3", "values": [
      {"measurement": "EC50", "result": 0.02, "unit": "µg/mL"}
    ]}
  ]
}
